For 14 compounds, T/C results are on record in PubChem BioAssay AID274 (DTP/NCI, 2004).

The subject of this test is BDF1 mice, Lewis lung carcinoma iv, survival T/C. Briefly: NCI In Vivo Anticancer Drug Screen. Data for tumor model Lewis Lung Carcinoma (intravenous) in B6D2F1 (BDF1) mice. Particulars: endpoint: median survival time, higher = longer survival. On the procedure:
The antitumor activity of compounds was measured in mice bearing transplantable tumors. Survival or tumor size were measured and the results are expressed as the measurement made in the treated group (T) divided by the measurement made in the vehicle treated control group (C). The tumor model used in this assay is Lewis Lung Carcinoma (intravenous) in B6D2F1 (BDF1) mice

Setting [1] is: dose: 12.5 mg/kg/injection, schedule: Q01DX009 (ip), vehicle: saline with Tween-80.
Where [2] appears, read: dose: 25.0 mg/kg/injection, schedule: Q01DX009 (ip), vehicle: saline with Tween-80.
[3] abbreviates: dose: 50.0 mg/kg/injection, schedule: Q01DX009 (ip), vehicle: saline with Tween-80.
The mark [4] stands for this setting: dose: 100.0 mg/kg/injection, schedule: Q01DX009 (ip), vehicle: saline with Tween-80.
The mark [5] stands for this setting: dose: 25.0 mg/kg/injection, schedule: Q01DX009 (ip), vehicle: saline.
The mark [6] stands for this setting: dose: 50.0 mg/kg/injection, schedule: Q01DX009 (ip), vehicle: saline.
[7] abbreviates: dose: 100.0 mg/kg/injection, schedule: Q01DX009 (ip), vehicle: saline.
Where [8] appears, read: dose: 6.25 mg/kg/injection, schedule: Q01DX009 (ip), vehicle: saline with Tween-80.
Where [9] appears, read: dose: 200.0 mg/kg/injection, schedule: Q01DX009 (ip), vehicle: saline.

Where “and” joins values, the source holds several entries; their conditions need not be identical. Equal values may be shown once. Toxic doses and inconclusive results are not listed.

With `CS(C)=O`, the T/C was 98 % of control (dose: 1.5 grams/kg/injection, schedule: Q01DX009 (ip), vehicle: saline); 96 % of control (dose: 3.0 grams/kg/injection, schedule: Q01DX009 (ip), vehicle: saline); 96 % of control (dose: 6.0 grams/kg/injection, schedule: Q01DX009 (ip), vehicle: saline).

In the case of `CC1(c2ccc(Cl)cc2)OC(=O)C(=Cc2ccc([N+](=O)[O-])s2)C(=O)O1` (centres undefined), the T/C runs as follows: under setting [1], 100 % of control; under setting [2], 100 % of control; under setting [3], 99 % of control; under setting [4], 98 % of control.

As for `COC1=C(NC(C)=O)C(=O)c2nc(-c3nc(C(=O)O)c(C)c(-c4ccc(OC)c(OC)c4O)c3N)ccc2C1=O`, the T/C was 101 % of control (dose: 6.0 mg/kg/injection, schedule: Q01DX009 (ip), vehicle: Klucel (hydroxypropylcellulose) (HPC)); 96 % of control (dose: 12.0 mg/kg/injection, schedule: Q01DX009 (ip), vehicle: Klucel (hydroxypropylcellulose) (HPC)); 98 % of control (dose: 25.0 mg/kg/injection, schedule: Q01DX009 (ip), vehicle: Klucel (hydroxypropylcellulose) (HPC)); 97 % of control (dose: 50.0 mg/kg/injection, schedule: Q01DX009 (ip), vehicle: Klucel (hydroxypropylcellulose) (HPC)).

For `Nc1ccc2ccc(O)cc2c1`, the T/C runs as follows: under setting [2], 100 % of control; under setting [3], 99 % of control; under setting [4], 91 % of control.

On to `CC(C)n1cc2c(N)ncnc2n1`, for which the T/C was 107 % of control under setting [5], 112 % of control under setting [6] and 117 % of control under setting [7].

Turning to `COc1cccc2c1C(=O)c1c(O)c3c(c(O)c1C2=O)C[C@@](O)(C(=O)CO)C[C@@H]3OC1CC(N)C(O)C(C)O1` (some centres undefined), the T/C is, setting by setting: (dose: 0.12 mg/kg/injection, schedule: Q01DX009 (ip), vehicle: saline) 97 % of control; (dose: 0.25 mg/kg/injection, schedule: Q01DX009 (ip), vehicle: saline) 99 % of control and 110 % of control and 90 % of control; (dose: 0.5 mg/kg/injection, schedule: Q01DX009 (ip), vehicle: saline) 99 % of control and 106 % of control and 113 % of control; (dose: 0.5 mg/kg/injection, schedule: Q04DX003 (ip), vehicle: saline) 100 % of control; (dose: 0.88 mg/kg/injection, schedule: Q01DX009 (ip), vehicle: saline) 107 % of control; (dose: 1.0 mg/kg/injection, schedule: Q01DX009 (ip), vehicle: saline) 100 % of control and 111 % of control and 280 % of control. Also, the T/C (dose: 1.0 mg/kg/injection, schedule: Q04DX003 (ip), vehicle: saline) was 92 % of control and 95 % of control; the T/C (dose: 1.26 mg/kg/injection, schedule: Q01DX009 (ip), vehicle: saline) is 121 % of control; the T/C (dose: 1.92 mg/kg/injection, schedule: Q04DX003 (ip), vehicle: saline) is 111 % of control; the T/C (dose: 2.0 mg/kg/injection, schedule: Q01DX001 (ip), vehicle: saline) is 112 % of control and 122 % of control; the T/C (dose: 2.0 mg/kg/injection, schedule: Q01DX009 (ip), vehicle: saline) is 112 % of control and 115 % of control; the T/C (dose: 2.0 mg/kg/injection, schedule: Q04DX003 (ip), vehicle: saline) was 96 % of control and 110 % of control. For the same compound, the T/C runs as follows: (dose: 2.57 mg/kg/injection, schedule: Q01DX009 (ip), vehicle: saline) 197 % of control; (dose: 3.6 mg/kg/injection, schedule: Q01DX001 (im), vehicle: water) 113 % of control; (dose: 3.9 mg/kg/injection, schedule: Q04DX003 (ip), vehicle: saline) 225 % of control; (dose: 4.0 mg/kg/injection, schedule: Q01DX001 (ip), vehicle: saline) 114 % of control; (dose: 4.0 mg/kg/injection, schedule: Q04DX003 (ip), vehicle: saline) 101 % of control and 105 % of control; (dose: 4.8 mg/kg/injection, schedule: Q01DX001 (iv), vehicle: saline) 114 % of control and 115 % of control and 123 % of control. Moreover, the T/C (dose: 5.6 mg/kg/injection, schedule: Q04DX003 (ip), vehicle: saline) is 253 % of control; the T/C (dose: 6.0 mg/kg/injection, schedule: Q01DX001 (im), vehicle: water) is 101 % of control; the T/C (dose: 6.86 mg/kg/injection, schedule: Q01DX001 (iv), vehicle: saline) is 151 % of control; the T/C (dose: 8.0 mg/kg/injection, schedule: Q01DX001 (ip), vehicle: saline) was 154 % of control and 169 % of control; the T/C (dose: 8.0 mg/kg/injection, schedule: Q04DX003 (ip), vehicle: saline) is 105 % of control; the T/C (dose: 9.8 mg/kg/injection, schedule: Q01DX001 (iv), vehicle: saline) is 195 % of control. Further, the T/C (dose: 14.0 mg/kg/injection, schedule: Q01DX001 (iv), vehicle: saline) is 175 % of control and 333 % of control.

For the compound `CC(=O)O[C@H]1C(=O)[C@@]2(C)[C@H]([C@H](OC(=O)c3ccccc3)[C@]3(O)C[C@H](OC(=O)[C@H](O)[C@@H](NC(=O)c4ccccc4)c4ccccc4)C(C)=C1C3(C)C)[C@]1(OC(C)=O)CO[C@@H]1C[C@@H]2O`, the T/C is, setting by setting: (dose: 25.9 mg/kg/injection, schedule: Q04DX003 (ip), vehicle: Klucel (hydroxypropylcellulose) (HPC)) 93 % of control; (dose: 43.2 mg/kg/injection, schedule: Q04DX003 (ip), vehicle: Klucel (hydroxypropylcellulose) (HPC)) 86 % of control.

Regarding `OCCOCC(F)(F)F`, the T/C under setting [8] was 98 % of control; the T/C under setting [1] was 86 % of control; the T/C under setting [2] is 106 % of control; the T/C under setting [5] is 89 % of control; the T/C under setting [3] was 90 % of control; the T/C under setting [4] was 102 % of control. Besides, the T/C (dose: 200.0 mg/kg/injection, schedule: Q01DX009 (ip), vehicle: saline with Tween-80) is 103 % of control.

In the case of `CC[As](=O)(O)CC`, the T/C was 105 % of control under setting [5], 101 % of control under setting [7] and 86 % of control under setting [9].

Consider `COc1cc2cc(c1Cl)N(C)C(=O)C[C@H](OC(=O)[C@H](C)N(C)C(C)=O)[C@]1(C)O[C@H]1[C@H](C)[C@@H]1C[C@@](O)(NC(=O)O1)[C@H](OC)C=C/C=C(\C)C2`, for which the T/C is, setting by setting: (dose: 54.0 micrograms/kg/injection, schedule: Q04DX003 (ip), vehicle: water) 94 % of control; (dose: 90.0 micrograms/kg/injection, schedule: Q04DX003 (ip), vehicle: water) 94 % of control; (dose: 150.0 micrograms/kg/injection, schedule: Q04DX003 (ip), vehicle: water) 90 % of control.

Consider `O=C(O)CC(NC(=O)CP(=O)(O)O)C(=O)O.[NH-]C1CCCCC1[NH-].[Pt+2]` (centres undefined), for which the T/C by setting is: (dose: 0.4 mg/kg/injection, schedule: Q01DX009 (ip), vehicle: dextrose) 90 % of control; (dose: 0.8 mg/kg/injection, schedule: Q01DX009 (ip), vehicle: dextrose) 110 % of control; (dose: 1.6 mg/kg/injection, schedule: Q01DX009 (ip), vehicle: dextrose) 99 % of control; (dose: 3.0 mg/kg/injection, schedule: Q01DX009 (ip), vehicle: dextrose) 108 % of control; (dose: 3.2 mg/kg/injection, schedule: Q01DX009 (ip), vehicle: dextrose) 103 % of control; (dose: 6.25 mg/kg/injection, schedule: Q01DX009 (ip), vehicle: dextrose) 110 % of control.

With `CC(=O)OCc1ncccc1OC(C)=O`, the T/C is 97 % of control under setting [5], 100 % of control under setting [6], 101 % of control under setting [7] and 104 % of control under setting [9].

Take `COP12(OCCO1)SC(C(F)(F)F)=C(C(F)(F)F)S2`: the T/C under setting [8] is 106 % of control, the T/C under setting [1] is 105 % of control, the T/C under setting [2] was 98 % of control and the T/C under setting [3] was 95 % of control.

For `CC(C)([NH-])CO.CC(C)([NH-])CO.[Cl][Cd][Cl]`, the T/C is, setting by setting: (dose: 0.63 mg/kg/injection, schedule: Q01DX009 (ip), vehicle: saline with Tween-80) 97 % of control; (dose: 1.25 mg/kg/injection, schedule: Q01DX009 (ip), vehicle: saline with Tween-80) 88 % of control; (dose: 2.5 mg/kg/injection, schedule: Q01DX009 (ip), vehicle: saline with Tween-80) 99 % of control.
